SMILES strings stand for the structures.

Consider 40 compounds from patent publication US7795261B2, “Substituted 1-piperidin-4-yl-4-pyrrolidin-3-yl-piperazine derivatives and their use as neurokinin antagonists” (Janssen Pharmaceutica NV, priority 2002, dated 2010).

Assay [1] deals with NK1 (Homo sapiens, UniProt P25103). Description: Signal transduction (ST), intracellular Ca++ (FLIPR), NK1 antagonistic activity. The note with it: read-out: pIC50 NK1 (converted). It counts as cell-based. On the procedure: (§1) This test evaluates in vitro functional NK1 antagonistic activity. For the measurements of intracellular Ca^++ concentrations the cells were grown on 96-well (black wall/transparent bottom) plates from Costar for 2 days until they reached confluence. The cells were loaded with 2 μM Fluo3 in DMEM containing 0.1% BSA and 2.5 mM probenecid for 1 h at 37° C. They were washed 3× with a Krebs buffer (140 mM NaCl, 1 mM MgCl2×6H2O, 5 mM KCl, 10 mM glucose, 5 mM HEPES; 1.25 mM CaCl2; pH 7.4) containing 2.5 mM probenecid and 0.1% BSA (Ca^++-buffer). The cells were preincubated with a concentration range of antagonists for 20 min at RT and Ca^++-signals after addition of the agonists were measured in a Fluorescence Image Plate Reader (FLIPR from Molecular Devices, Crawley, England). The peak of the Ca^++-transient was considered as the relevant signal and the mean values of corresponding wells were analysed as described below.
The sigmoidal dose response curves were analysed by computerised curve-fitting, using the GraphPad Program. […] For antagonist responses the IC50-value was calculated using non-linear regression. […]

In assay [2] the target is T1, NK3 (Homo sapiens, UniProt P29371).
T1 sequence (P29371 1-465): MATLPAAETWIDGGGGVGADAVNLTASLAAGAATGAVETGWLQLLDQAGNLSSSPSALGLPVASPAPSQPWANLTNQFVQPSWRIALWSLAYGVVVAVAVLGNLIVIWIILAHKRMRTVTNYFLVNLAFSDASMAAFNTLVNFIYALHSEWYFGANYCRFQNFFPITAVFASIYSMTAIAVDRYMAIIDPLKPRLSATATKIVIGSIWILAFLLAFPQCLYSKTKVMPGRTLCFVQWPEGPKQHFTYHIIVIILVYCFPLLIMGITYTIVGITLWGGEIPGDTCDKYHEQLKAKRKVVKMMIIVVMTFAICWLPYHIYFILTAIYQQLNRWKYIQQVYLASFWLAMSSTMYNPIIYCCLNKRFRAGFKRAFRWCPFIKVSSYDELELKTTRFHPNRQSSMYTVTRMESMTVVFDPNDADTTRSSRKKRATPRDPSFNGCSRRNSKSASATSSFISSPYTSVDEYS
Description: Signal transduction (ST), intracellular Ca++ (FLIPR), NK3. It counts as cell-based. Particulars: read-out: pIC50 NK3 (converted). As to the method:
[The procedure below names another target; the source lists this target under the same test.] as §1
The sigmoidal dose response curves were analysed by computerised curve-fitting, using the GraphPad Program. […] For antagonist responses the IC50-value was calculated using non-linear regression.
The last columns indicates—without being limited therefore—for which the compounds might be most suitable. Of course, since for some neurokinin receptors no data was determined, it is obvious that these compounds might be attributed to another suitable use.

Sequence of NK1 (P25103 whole entry): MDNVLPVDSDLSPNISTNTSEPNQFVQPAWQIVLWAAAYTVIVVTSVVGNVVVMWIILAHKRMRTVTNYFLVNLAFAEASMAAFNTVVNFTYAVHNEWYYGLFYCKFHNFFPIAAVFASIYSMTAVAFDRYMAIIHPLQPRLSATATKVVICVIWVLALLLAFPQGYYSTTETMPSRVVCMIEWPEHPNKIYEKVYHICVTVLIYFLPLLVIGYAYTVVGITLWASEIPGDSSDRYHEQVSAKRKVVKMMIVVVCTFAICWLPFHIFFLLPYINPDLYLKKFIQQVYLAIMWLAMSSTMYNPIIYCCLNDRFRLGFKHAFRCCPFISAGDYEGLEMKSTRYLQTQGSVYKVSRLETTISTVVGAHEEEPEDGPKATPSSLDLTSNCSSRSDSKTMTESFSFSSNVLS

On to `O=C(c1cc(C(F)(F)F)cc(C(F)(F)F)c1)N1CCC(N2CCN(C3CCN(C(=O)C(F)(F)F)C3)CC2)CC1Cc1ccccc1` (centres unmarked) [Compound 203], for which the IC50 is 0.02 µM in assay [1] and 1 µM in assay [2].
As to `O=C1CCCN1CC(=O)N1CCC(N2CCN([C@H]3CCN(C(=O)c4cc(C(F)(F)F)cc(C(F)(F)F)c4)[C@H](Cc4ccccc4)C3)CC2)C1` (some centres unmarked) [Compound 214], the IC50 in assay [1] was 0.02 µM; in assay [2], 3.98 µM.
As to `O=C(c1ccccc1)N1CCC(N2CCN([C@@H]3CCN(C(=O)c4cc(C(F)(F)F)cc(C(F)(F)F)c4)[C@H](Cc4ccccc4)C3)CC2)C1` (some centres unmarked) [Compound 136], in assay [1], the IC50 was 0.2 µM.
Take `Cc1nnsc1C(=O)N1CCC(N2CCN([C@H]3CCN(C(=O)c4cc(C(F)(F)F)cc(C(F)(F)F)c4)[C@H](Cc4ccccc4)C3)CC2)C1` (some centres unmarked) [Compound 51]: the IC50 in assay [1] is 0.0631 µM; in assay [2], 3.98 µM.
For `CC(C)C(=O)N1CCC(N2CCN([C@H]3CCN(C(=O)c4cc(C(F)(F)F)cc(C(F)(F)F)c4)[C@H](Cc4ccccc4)C3)CC2)C1` (some centres unmarked) [Compound 199], the IC50 in assay [1] was 0.01 µM; in assay [2], 1.58 µM.
On the same counts, the results for `COC(C(=O)N1CCC(N2CCN(C3CCN(C(=O)c4cc(C(F)(F)F)cc(C(F)(F)F)c4)C(Cc4ccccc4)C3)CC2)C1)c1ccccc1` (centres unmarked) [Compound 109] are 0.0126 µM and 7.94 µM.
With `O=C(C1CCOC1)N1CCC(N2CCN(C3CCN(C(=O)c4cc(C(F)(F)F)cc(C(F)(F)F)c4)C(Cc4ccccc4)C3)CC2)C1` (single isomer, unassigned) [Compound 139], the values for the IC50 in assay [1] and in assay [2] were 0.158 µM and 6.31 µM, respectively.
With `O=C([C@H]1CCCN1)N1CCC(N2CCN([C@H]3CCN(C(=O)c4cc(C(F)(F)F)cc(C(F)(F)F)c4)[C@H](Cc4ccccc4)C3)CC2)C1` (some centres unmarked) [Compound 213], the IC50 in assay [1] is 0.02 µM; in assay [2], 1.58 µM.
Regarding `COc1cc(CC(=O)N2CCC(N3CCN([C@H]4CCN(C(=O)c5cc(C(F)(F)F)cc(C(F)(F)F)c5)[C@H](Cc5ccccc5)C4)CC3)C2)cc(OC)c1OC` (some centres unmarked) [Compound 65], the IC50 in assay [1] is 0.0126 µM; in assay [2] it was 3.16 µM.
As for `Cc1noc(C)c1C(=O)N1CCC(N2CCN([C@H]3CCN(C(=O)c4cc(C(F)(F)F)cc(C(F)(F)F)c4)[C@H](Cc4ccccc4)C3)CC2)C1` (some centres unmarked) [Compound 48], the values for the IC50 in assay [1] and in assay [2] were 0.0158 µM and 2.51 µM, respectively.
On to `CCOCCn1c(CN2CCC(N3CCN([C@H]4CCN(C(=O)c5cc(C(F)(F)F)cc(C(F)(F)F)c5)[C@H](Cc5ccccc5)C4)CC3)C2)nc2ccccc21` (some centres unmarked) [Compound 11], for which the IC50 is 0.126 µM in assay [1] and 3.16 µM in assay [2].
As for `O=C(CN1CCOCC1)N1CCC(N2CCN([C@H]3CCN(C(=O)c4cc(C(F)(F)F)cc(C(F)(F)F)c4)[C@H](Cc4ccccc4)C3)CC2)C1` (some centres unmarked) [Compound 197], the IC50 in assay [1] was 0.0251 µM.
Still for that read-out and setting: to `O=C(c1cc(C(F)(F)F)cc(C(F)(F)F)c1)N1CCC(N2CCN(C3CCNC3)CC2)CC1Cc1ccc(F)c(F)c1` (single isomer, unassigned) [Compound 212] belongs 0.0501 µM; to `O=C(c1c(Cl)cccc1Cl)N1CC[C@H](N2CCN([C@@H]3CCN(C(=O)c4cc(C(F)(F)F)cc(C(F)(F)F)c4)[C@@H](Cc4ccc(Cl)c(Cl)c4)C3)CC2)C1` [Compound 246], 0.126 µM.
In the case of `O=C(CN1CCNCC1)N1CCC(N2CCN([C@H]3CCN(C(=O)c4cc(C(F)(F)F)cc(C(F)(F)F)c4)[C@H](Cc4ccccc4)C3)CC2)C1` (some centres unmarked) [Compound 201], in assay [1], the IC50 was 0.0501 µM.
On to `CC(C)(C)C(=O)N1CC[C@H](N2CCN([C@@H]3CCN(C(=O)c4cc(C(F)(F)F)cc(C(F)(F)F)c4)[C@@H](Cc4ccc(Cl)c(Cl)c4)C3)CC2)C1` [Compound 247], for which, in assay [1], the IC50 is 0.0316 µM.
In the case of `O=C(C1CCNC1)N1CCC(N2CCN([C@H]3CCN(C(=O)c4cc(C(F)(F)F)cc(C(F)(F)F)c4)[C@H](Cc4ccccc4)C3)CC2)C1` (some centres unmarked) [Compound 235], the IC50 in assay [1] was 0.0398 µM.
As to `O=C(C1CCNCC1)N1CCC(N2CCN(C3CCN(C(=O)c4cc(C(F)(F)F)cc(C(F)(F)F)c4)C(Cc4ccccc4)C3)CC2)C1` (centres unmarked) [Compound 241], the IC50 in assay [1] was 0.0316 µM.
Still for that read-out and setting: with `CC(C)N/C(=C\[N+](=O)[O-])N1CCC(N2CCN(C3CCN(C(=O)c4cc(C(F)(F)F)cc(C(F)(F)F)c4)C(Cc4ccccc4)C3)CC2)C1` (centres unmarked) [Compound 354] the figure was 0.0316 µM; with `Cc1cc(C)cc(C(=O)N2CC[C@H](N3CCN(C4CCN(C(=O)c5ccoc5)C4)CC3)C[C@H]2Cc2ccccc2)c1` (some centres unmarked) [Compound 85], 0.0316 µM; with `O=C([C@@H]1CCCN1)N1CCC(N2CCN([C@H]3CCN(C(=O)c4cc(C(F)(F)F)cc(C(F)(F)F)c4)[C@H](Cc4ccccc4)C3)CC2)C1` (some centres unmarked) [Compound 144], 0.126 µM.
On to `CC(C)(C)OC(=O)N1CCC(N2CCN(C3CCN(C(=O)c4cc(C(F)(F)F)cc(C(F)(F)F)c4)C(Cc4ccc(Cl)c(Cl)c4)C3)CC2)C1` (single isomer, unassigned) [Compound 243], for which, in assay [1], the IC50 was 0.2 µM.
Still for that read-out and setting: to `O=C(c1cc(C(F)(F)F)cc(C(F)(F)F)c1)N1CC[C@H](N2CCN([C@H]3CCNC3)CC2)C[C@H]1Cc1ccccc1` [Compound 148] belongs 0.0631 µM; to `O=C(CN1CCCC1)N1CCC(N2CCN(C3CCN(C(=O)c4cc(C(F)(F)F)cc(C(F)(F)F)c4)C(Cc4ccccc4)C3)CC2)C1` (centres unmarked) [Compound 196], 0.02 µM.
Consider `O=C(c1cc(C(F)(F)F)cc(C(F)(F)F)c1)N1CCC(N2CCN(C3CCNC3)CC2)CC1Cc1ccc(Cl)c(Cl)c1` (centres unmarked) [Compound 244], for which the IC50 in assay [1] was 0.0794 µM.
As to `CN(C)CCN1CCC[C@H]1C(=O)N1CCC(N2CCN([C@H]3CCN(C(=O)c4cc(C(F)(F)F)cc(C(F)(F)F)c4)[C@H](Cc4ccccc4)C3)CC2)C1` (some centres unmarked) [Compound 185], the IC50 in assay [1] was 0.0501 µM.
With `O=C(C1CCCNC1)N1CCC(N2CCN([C@H]3CCN(C(=O)c4cc(C(F)(F)F)cc(C(F)(F)F)c4)[C@H](Cc4ccccc4)C3)CC2)C1` (some centres unmarked) [Compound 240], in assay [1], the IC50 is 0.0316 µM.
On to `O=C(c1cc(C(F)(F)F)cc(C(F)(F)F)c1)N1CCC(N2CCN(C3CCN(CCCCO)C3)CC2)CC1Cc1ccc(Cl)c(Cl)c1` (centres unmarked) [Compound 393], for which, in assay [1], the IC50 was 0.00501 µM.
As to `O=C(c1cc(C(F)(F)F)cc(C(F)(F)F)c1)N1CCC(N2CCN(C3CCNC3)CC2)CC1Cc1ccc(F)c(F)c1` (single isomer, unassigned) [Compound 225], the IC50 in assay [1] is 0.0158 µM.
Turning to `O=C(c1cc(C(F)(F)F)cc(C(F)(F)F)c1)N1CC[C@H](N2CCN(C3CCNC3)CC2)C[C@@H]1Cc1ccccc1` (some centres unmarked) [Compound 118], the IC50 in assay [1] is 0.126 µM.
As for `O=C(c1cc(C(F)(F)F)cc(C(F)(F)F)c1)N1CCC(N2CCN(C3CCNC3)CC2)CC1Cc1ccccc1` (centres unmarked) [Compound 2], in assay [1], the IC50 was 0.0631 µM.
With `CN1CCN(C(C(=O)N2CCC(N3CCN([C@H]4CCN(C(=O)c5cc(C(F)(F)F)cc(C(F)(F)F)c5)[C@H](Cc5ccccc5)C4)CC3)C2)c2ccccc2)CC1` (some centres unmarked) [Compound 105], in assay [1], the IC50 was 0.0631 µM.
As to `COCCOCC(=O)N1CCC(N2CCN([C@H]3CCN(C(=O)c4cc(C(F)(F)F)cc(C(F)(F)F)c4)[C@H](Cc4ccccc4)C3)CC2)C1` (some centres unmarked) [Compound 390], the IC50 in assay [1] was 0.02 µM.
For the compound `O=C(C1CC1)N1CC[C@H](N2CCN([C@@H]3CCN(C(=O)c4cc(C(F)(F)F)cc(C(F)(F)F)c4)[C@@H](Cc4ccc(Cl)c(Cl)c4)C3)CC2)C1` [Compound 245], the IC50 in assay [1] was 0.0501 µM.
As for `Cc1nccn1CC(=O)N1CCC(N2CCN(C3CCN(C(=O)c4cc(C(F)(F)F)cc(C(F)(F)F)c4)C(Cc4ccccc4)C3)CC2)C1` (centres unmarked) [Compound 209], the IC50 in assay [1] is 0.02 µM.
With `COC(=O)CCN1CCC(N2CCN(C3CCN(C(=O)c4cc(C(F)(F)F)cc(C(F)(F)F)c4)C(Cc4ccccc4)C3)CC2)C1` (centres unmarked) [Compound 80], the IC50 in assay [1] was 0.1 µM.
`O=C(C1CCOC1)N1CCC(N2CCN(C3CCN(C(=O)c4cc(C(F)(F)F)cc(C(F)(F)F)c4)C(Cc4ccccc4)C3)CC2)C1` (single isomer, unassigned) [Compound 129]: the IC50 in assay [1] was 0.251 µM.
As for `CC(=O)N1CCC[C@H]1C(=O)N1CCC(N2CCN([C@H]3CCN(C(=O)c4cc(C(F)(F)F)cc(C(F)(F)F)c4)[C@H](Cc4ccccc4)C3)CC2)C1` (some centres unmarked) [Compound 186], in assay [1], the IC50 was 0.1 µM.
Consider `O=C(c1cc(C(F)(F)F)cc(C(F)(F)F)c1)N1CCC(N2CCN(C3CCN(Cc4ccccc4)C3)CC2)CC1Cc1ccccc1` (centres unmarked) [Compound 1], for which the IC50 in assay [1] is 0.1 µM.
Consider `O=C(c1cc(C(F)(F)F)cc(C(F)(F)F)c1)N1CC[C@H](N2CCN([C@@H]3CCNC3)CC2)C[C@H]1Cc1ccccc1` [Compound 149], for which the IC50 in assay [1] is 0.0398 µM.
